In patent publication US20190367516A1 (Bayer Pharma Aktiengesellschaft, priority 2015, published 2019):

Biological target: T1, human M2 receptor (Homo sapiens, UniProt P08172)
T1 sequence (P08172 1-466): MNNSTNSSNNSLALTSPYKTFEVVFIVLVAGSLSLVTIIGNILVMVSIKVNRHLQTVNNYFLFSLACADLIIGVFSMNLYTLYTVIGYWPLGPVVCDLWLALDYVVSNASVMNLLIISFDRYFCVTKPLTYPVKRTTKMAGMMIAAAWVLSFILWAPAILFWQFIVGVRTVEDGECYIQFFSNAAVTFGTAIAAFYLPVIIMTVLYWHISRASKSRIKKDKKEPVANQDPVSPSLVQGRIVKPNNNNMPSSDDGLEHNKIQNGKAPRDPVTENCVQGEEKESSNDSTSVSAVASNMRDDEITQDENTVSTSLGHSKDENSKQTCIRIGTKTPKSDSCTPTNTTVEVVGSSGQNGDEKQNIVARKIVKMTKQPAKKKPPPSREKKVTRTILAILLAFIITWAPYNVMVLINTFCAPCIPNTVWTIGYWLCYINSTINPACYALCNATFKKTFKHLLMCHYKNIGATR
Settings: Receptor activity EC50, M2-GIRK1/4 activation test, acetylcholine at EC20; allosteric potency; in some cases mean values from two or more determinations

SMILES	EC50 [nM]
O=C(NC12CC3CC(CC(C3)C1)C2)c1cn(-c2ccc(F)cc2F)c2nc(N3CCCC(F)(F)C3)ccc2c1=O [Example 1, 1-(2,4-Difluorophenyl)-7-(3,3-difluoropiperidin-1-yl)-4-oxo-N-(tricyclo[3.3.1.1^3,7]dec-1-yl)-1,4-dihydro-1,8-naphthyridine-3-carboxamide]	14
O=C(NC12CC3CC(CC(C3)C1)C2)c1cn(-c2ccc(F)cc2F)c2nc(N3CCC(F)CC3)ccc2c1=O [Example 5, 1-(2,4-Difluorophenyl)-7-(4-fluoropiperidin-1-yl)-4-oxo-N-(tricyclo[3.3.1.1^3,7]dec-1-yl)-1,4-dihydro-1,8-naphthyridine-3-carboxamide]	31
O=C(NC12CC3CC(CC(C3)C1)C2)c1cn(-c2ccc(F)cc2F)c2nc(N3CCCCC3)ccc2c1=O [Example 8, 1-(2,4-Difluorophenyl)-4-oxo-7-(piperidin-1-yl)-N-(tricyclo[3.3.1.1^3,7]dec-1-yl)-1,4-dihydro-1,8-naphthyridine-3-carboxamide]	38
NC(=O)N1CCN(c2ccc3c(=O)c(C(=O)NC45CC6CC(CC(C6)C4)C5)cn(-c4ccc(F)cc4F)c3n2)CC1 [Example 12, 7-(4-Carbamoylpiperazin-1-yl)-1-(2,4-difluorophenyl)-4-oxo-N-(tricyclo[3.3.1.1^3,7]dec-1-yl)-1,4-dihydro-1,8-naphthyridine-3-carboxamide]	64
O=C(NC12CC3CC(CC(C3)C1)C2)c1cn(-c2ccc(F)cc2F)c2nc(N3CCCC(CCO)C3)ccc2c1=O (stereo not drawn) [Example 17, 1-(2,4-Difluorophenyl)-7-[3-(2-hydroxyethyl)piperidin-1-yl]-4-oxo-N-(tricyclo[3.3.1.1^3,7]dec-1-yl)-1,4-dihydro-1,8-naphthyridine-3-carboxamide]	159
CC(C)(NC(=O)c1cn(-c2ccc(F)cc2F)c2nc(N3CC[C@@H](O)C3)ccc2c1=O)c1c(F)cccc1F [Example 21, 1-(2,4-Difluorophenyl)-N-[2-(2,6-difluorophenyl)propan-2-yl]-7-[(3R)-3-hydroxypyrrolidin-1-yl]-4-oxo-1,4-dihydro-1,8-naphthyridine-3-carboxamide]	145
CO[C@@H]1CCN(c2ccc3c(=O)c(C(=O)NC(C)(C)c4c(F)cccc4F)cn(-c4ccc(F)cc4F)c3n2)C1 [Example 22, 1-(2,4-Difluorophenyl)-N-[2-(2,6-difluorophenyl)propan-2-yl]-7-[(3R)-3-methoxypyrrolidin-1-yl]-4-oxo-1,4-dihydro-1,8-naphthyridine-3-carboxamide]	131
CN(C)c1ccc2c(=O)c(C(=O)NC34CC5CC(CC(F)(C5)C3)C4)cn(-c3ccc(F)cc3F)c2n1 [Example 37, 1-(2,4-Difluorophenyl)-7-(dimethylamino)-N-(3-fluorotricyclo[3.3.1.1^3,7]dec-1-yl)-4-oxo-1,4-dihydro-1,8-naphthyridine-3-carboxamide]	23
CN(C)c1ccc2c(=O)c(C(=O)NC34CC5CC(CC(C)(C5)C3)C4)cn(-c3ccc(F)cc3F)c2n1 [Example 41, 1-(2,4-Difluorophenyl)-7-(dimethylamino)-N-(3-methyltricyclo[3.3.1.1^3,7]dec-1-yl)-4-oxo-1,4-dihydro-1,8-naphthyridine-3-carboxamide]	39
CN(C)c1ccc2c(=O)c(C(=O)NC34CCC(C)(CC3)CC4)cn(-c3ccc(F)cc3F)c2n1 [Example 42, 1-(2,4-Difluorophenyl)-7-(dimethylamino)-N-(4-methylbicyclo[2.2.2]oct-1-yl)-4-oxo-1,4-dihydro-1,8-naphthyridine-3-carboxamide]	17
CN(C)c1ccc2c(=O)c(C(=O)NC34CCC(F)(CC3)CC4)cn(-c3ccc(F)cc3F)c2n1 [Example 47, 1-(2,4-Difluorophenyl)-7-(dimethylamino)-N-(4-fluorobicyclo[2.2.2]oct-1-yl)-4-oxo-1,4-dihydro-1,8-naphthyridine-3-carboxamide]	43
CN(C)c1ccc2c(=O)c(C(=O)NCc3c(Cl)cccc3Cl)cn(-c3ccc(F)cc3F)c2n1 [Example 49, N-(2,6-Dichlorobenzyl)-1-(2,4-difluorophenyl)-7-(dimethylamino)-4-oxo-1,4-dihydro-1,8-naphthyridine-3-carboxamide]	89

Results, then the compound that gave them:

EC50 [nM]	SMILES
90	O=C(NC12CC3CC(CC(C3)C1)C2)c1cn(-c2ccc(F)cc2F)c2nc(N3CCC(F)(CO)CC3)ccc2c1=O [Example 16, 1-(2,4-Difluorophenyl)-7-[4-fluoro-4-(hydroxymethyl)piperidin-1-yl]-4-oxo-N-(tricyclo[3.3.1.1^3,7]dec-1-yl)-1,4-dihydro-1,8-naphthyridine-3-carboxamide]
117	O=C1CN(c2ccc3c(=O)c(C(=O)NC45CC6CC(CC(C6)C4)C5)cn(-c4ccc(F)cc4F)c3n2)CCN1 [Example 18, 1-(2,4-Difluorophenyl)-4-oxo-7-(3-oxopiperazin-1-yl)-N-(tricyclo[3.3.1.1^3,7]dec-1-yl)-1,4-dihydro-1,8-naphthyridine-3-carboxamide]
173	CC[C@@H](NC(=O)c1cn(-c2ccc(F)cc2F)c2nc(N3CC(F)C3)ccc2c1=O)C(F)(F)F [Example 32, 1-(2,4-Difluorophenyl)-7-(3-fluoroazetidin-1-yl)-4-oxo-N-[(2R)-1,1,1-trifluorobutan-2-yl]-1,4-dihydro-1,8-naphthyridine-3-carboxamide]
106	CN(C)c1ccc2c(=O)c(C(=O)NC34CC5CC(C3)C(F)(F)C(C5)C4)cn(-c3ccc(F)cc3Cl)c2n1 [Example 40, 1-(2-Chloro-4-fluorophenyl)-N-(4,4-difluorotricyclo[3.3.1.1^3,7]dec-1-yl)-7-(dimethylamino)-4-oxo-1,4-dihydro-1,8-naphthyridine-3-carboxamide]
141	CN(C)c1ccc2c(=O)c(C(=O)NC(C)(C)C)cn(-c3ccc(F)cc3F)c2n1 [Example 43, N-tery-Butyl-1-(2,4-difluorophenyl)-7-(dimethylamino)-4-oxo-1,4-dihydro-1,8-naphthyridine-3-carboxamide]
28	CC[C@H](NC(=O)c1cn(-c2ccc(F)cc2F)c2nc(N(C)C)ccc2c1=O)C(F)(F)F [Example 45, 1-(2,4-Difluorophenyl)-7-(dimethylamino)-4-oxo-N-[(2S)-1,1,1-trifluorobutan-2-yl]-1,4-dihydro-1,8-naphthyridine-3-carboxamide]
158	CN(C)c1ccc2c(=O)c(C(=O)NCc3ccc(F)cc3F)cn(-c3ccc(F)cc3F)c2n1 [Example 50, N-(2,4-Dmuorobenzyl)-1-(2,4-difluorophenyl)-7-(dimethylamino)-4-oxo-1,4-dihydro-1,8-naphthyridine-3-carboxamide]
100	Cc1cccc(C)c1CNC(=O)c1cn(-c2ccc(F)cc2F)c2nc(N(C)C)ccc2c1=O [Example 51, 1-(2,4-Difluorophenyl)-7-(dimethylamino)-N-(2,6-dimethylbenzyl)-4-oxo-1,4-dihydro-1,8-naphthyridine-3-carboxamide]
104	CN(C)c1ccc2c(=O)c(C(=O)Nc3c(F)cccc3F)cn(-c3ccc(F)cc3F)c2n1 [Example 52, 1-(2,4-Difluorophenyl)-N-(2,6-difluorophenyl)-7-(dimethylamino)-4-oxo-1,4-dihydro-1,8-naphthyridine-3-carboxamide]
